Read-outs that look alike come from different tables or passages of the source.
Tests used:
LPS5 lymphoblasts [1] = test: Antioxidant activity after menadione in ALS patient lymphoblasts; assay type: cell-based, human; details: for rescue of cell viability after menadione: LPS5, 10 μM menadione 3 h, 10 µM compound pretreatment 21 h
hMAO-A = target: T1, hMAO-A (Homo sapiens, UniProt P21397); test: hMAO-A inhibitory activity (kynuramine, spectrophotometric); assay type: biochemical; details: for inhibition at 10 µM: read-out: hMAO-A inhibition at the highest concentration tested
T1 sequence (P21397 1-527): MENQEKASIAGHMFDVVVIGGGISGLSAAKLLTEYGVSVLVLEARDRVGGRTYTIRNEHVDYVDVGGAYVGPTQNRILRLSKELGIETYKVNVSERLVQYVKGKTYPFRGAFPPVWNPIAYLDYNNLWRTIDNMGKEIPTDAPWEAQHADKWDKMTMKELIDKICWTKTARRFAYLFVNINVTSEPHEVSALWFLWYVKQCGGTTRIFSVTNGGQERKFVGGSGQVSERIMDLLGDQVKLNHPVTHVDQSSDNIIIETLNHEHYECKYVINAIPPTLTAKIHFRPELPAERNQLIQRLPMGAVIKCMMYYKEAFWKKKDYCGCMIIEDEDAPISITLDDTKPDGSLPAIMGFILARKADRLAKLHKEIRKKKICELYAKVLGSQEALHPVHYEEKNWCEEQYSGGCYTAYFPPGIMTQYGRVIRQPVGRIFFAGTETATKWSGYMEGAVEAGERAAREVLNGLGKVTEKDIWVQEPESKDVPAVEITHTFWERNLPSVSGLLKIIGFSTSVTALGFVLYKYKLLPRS

[2] = test system: primary cerebellar granule neurons (CGNs); test: Neuroprotection on glutamate-mediated excitotoxicity in CGNs (MTT); details: 100 μM glutamate; for reversal of glutamate-mediated excitotoxicity: CGNs
CK-1δ [3] = target: T2, CK-1δ (Homo sapiens, UniProt P48730); test: CK-1δ activity assay (KinaseGlo luminescence); assay type: biochemical; details: read-out: residual CK-1δ activity (%)
T2 construct: amino acids 1–294; GST (N); purchased Merck Millipore
T2 sequence (P48730 1-294): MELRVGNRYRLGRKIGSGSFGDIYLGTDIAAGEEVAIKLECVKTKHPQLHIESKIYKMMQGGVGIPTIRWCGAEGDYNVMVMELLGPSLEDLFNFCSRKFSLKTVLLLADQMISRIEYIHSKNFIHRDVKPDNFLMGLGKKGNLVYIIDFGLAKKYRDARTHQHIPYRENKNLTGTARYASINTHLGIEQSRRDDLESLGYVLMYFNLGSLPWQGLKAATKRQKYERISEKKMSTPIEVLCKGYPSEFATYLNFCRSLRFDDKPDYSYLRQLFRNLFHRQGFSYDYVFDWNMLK
Procedure: CK-1δ activity assay. Compounds were evaluated towards CK-1δ (Merck Millipore, recombinant human, amino acids 1–294, with N-terminal GST-tagged) with the KinaseGloR luminescence assay (Promega) […]
following procedures reported in literature.10 In detail, luminescent assays were performed in black 96-well plates, using a buffer composed of: 50 mM HEPES (pH 7.5), 1 mM EDTA, 1 mM EGTA, and 15 mM […]
solution was used as a negative control. In a typical assay, 10 μL of inhibitor solution (obtained using a 10 mM DMSO solution diluted in assay buffer to 160 μM that corresponds to a final concentration of 40 μM in the assay) and 10 μL (16 ng of CK1δ) of enzyme solution were added to the well, followed by 20 μL of assay buffer containing 0.1% casein substrate and 4 μM ATP. The final DMSO concentration in the reaction […]
After 60 min of incubation at 30 °C for CK1δ the enzymatic reactions were stopped with 40 μL of Kinase-Glo reagent (Promega). Luminescence signal (relative light unit,RLU) was recorded after 10 min at 25 °C using Tecan Infinite M100. The activity is proportional to the difference of the total and consumed ATP. The residual activities of the enzyme were calculated on the basis of maximal activities measured in the absence of inhibitor. Data were analyzed using Excel and percentages of enzyme residual activity are reported as means ± standard deviation of two independent experiments performed in […]

LH5 lymphoblasts = test: Antioxidant activity after menadione in healthy lymphoblasts; assay type: cell-based, human; details: LH5, 10 μM menadione 3 h, 10 µM compound pretreatment 21 h
hMAO-B = target: T3, hMAO-B (Homo sapiens, UniProt P27338); test: hMAO-B inhibitory activity (kynuramine, spectrophotometric); assay type: biochemical; details: for SI: hMAO-B selectivity index = IC50 (hMAO-A)/IC50 (hMAO-B): bounds assume IC50 = 10 µM for inactive isoform; for inhibition at 10 µM: read-out: hMAO-B inhibition at the highest concentration tested
T3 sequence (P27338 1-520): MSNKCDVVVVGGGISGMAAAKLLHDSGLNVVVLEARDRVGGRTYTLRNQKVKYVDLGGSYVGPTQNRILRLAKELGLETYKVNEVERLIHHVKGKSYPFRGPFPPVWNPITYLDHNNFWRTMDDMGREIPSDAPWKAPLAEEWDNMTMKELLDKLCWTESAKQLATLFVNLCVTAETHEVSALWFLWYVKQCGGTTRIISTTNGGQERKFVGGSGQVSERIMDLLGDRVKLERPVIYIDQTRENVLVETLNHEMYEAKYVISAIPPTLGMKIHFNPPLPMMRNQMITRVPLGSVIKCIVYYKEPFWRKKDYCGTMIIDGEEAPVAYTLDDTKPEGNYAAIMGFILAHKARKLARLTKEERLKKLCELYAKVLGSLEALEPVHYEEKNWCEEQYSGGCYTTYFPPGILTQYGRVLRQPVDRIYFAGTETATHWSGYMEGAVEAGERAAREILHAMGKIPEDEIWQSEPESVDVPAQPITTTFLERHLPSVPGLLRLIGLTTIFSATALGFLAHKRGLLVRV

[4] = test system: Bcl-2 expression in N9 microglial cells; test: Antiapoptotic effects in LPS-insulted N9 microglia, Bcl-2 Western blot; assay type: cell-based
[5] = PAMPA-BBB permeability assay; details: for Papp: PAMPA, PAMPA-BBB; for CNS prediction: predicted from PAMPA Pe
[6] = test system: iNOS expression in N9 microglial cells; test: Immunomodulation in LPS-insulted N9 microglia, iNOS Western blot; assay type: cell-based; details: LPS-insulted N9, 10 μM
CK-1δ [7] = target: T2, CK-1δ; details: cited from earlier work
[8] = PAMPA
LPS5 lymphoblasts [9] = test: Cell viability in mutSOD1 lymphoblasts (resazurin reduction); assay type: cell-based, human; details: LPS5 (mutSOD1), 1, 10, 100 µM, 24 h
[10] = Antioxidant activity after menadione in ALS patient lymphoblasts; assay type: cell-based, human; details: human, LPS5 lymphoblast-derived cell line; LPS5, 50 μM menadione; read-out: cell viability after menadione insult
[11] = Antioxidant activity after menadione in healthy lymphoblasts; assay type: cell-based, human; details: human, LH5 lymphoblast-derived cell line, read-out: cell viability after menadione insult
[12] = Table S3, mean ± SD, highest concentration 10 µM, read-out: IC50 hMAO-A
[13] = Table S3, mean ± SD, highest concentration 10 µM, read-out: IC50 hMAO-B
[14] = pH 7.4, Pe, in vitro permeability coefficient, PBS pH 7.4, Pe ± SEM
[15] = pH 7.4, permeability coefficient (Pe)

Row | Compound | IC50 (hMAO-A; [12]) [µM] | remaining activity at 40 µM (CK-1δ [3]) [%] | IC50 (hMAO-B; [13]) [µM] | Papp [5, 14] [×10⁻⁶ cm/s] | inhibition at 10 µM (hMAO-A) [%] | inhibition at 10 µM (hMAO-B) [%] | CNS prediction [5] | also measured
1 | C#CCN[C@@H]1CCc2ccccc21 [Compound 2, rasagiline, reference compound] | – | – | – | – | – | – | – | Bcl-2 expression ([4]; LPS-insulted N9, 1 or 10 μM): increased the level of the anti-apoptotic Bcl-2 marker; iNOS expression [6]: moderate decrease of iNOS expression
2 | Nc1nc2ccc(OC(F)(F)F)cc2s1 [Compound 1, riluzole, reference compound] | 8.71 ± 0.81 | – | > 10 | – | – | – | – | IC50 (hMAO-A; read-out: hMAO-A IC50): 8.7 µM; rescue of cell viability after menadione (LH5 lymphoblasts): a viability recovery trend; Bcl-2 expression ([4]; LPS-insulted N9, 1 or 10 μM): increased the level of the anti-apoptotic Bcl-2 marker; IC50 (CK-1δ [7]; read-out: IC50 against CK1δ): 16.1 µM; iNOS expression [6]: moderate decrease of iNOS expression
3 | CCN(C)C(=O)Oc1cccc([C@H](C)N(C)C)c1 [rivastigmine] | – | – | – | – | – | – | – | CNS prediction [8]: CNS + (key: CNS +: high BBB permeation predicted, Pe (×10-6 cm s-1) > 4.0; CNS -: low BBB permeation predicted, Pe (×10-6 cm s-1) < 2.0)
4 | C#CCN(CC#C)Cc1ccc2nc(N)sc2c1 [Compound 3] | > 10 | 64.4 | > 10 | 24.9 ± 0.25 | < 50 | < 50 | CNS + (CNS +: high BBB permeation predicted, Pe (×10-6 cm s-1) > 4.0) | melting point: 148 °C
5 | CC[C@H](CO)Nc1nc(NCc2ccc(-c3ccccn3)cc2)c2ncn(C(C)C)c2n1 [CR8] | – | – | – | – | – | – | – | IC50 (CK-1δ [7]; read-out: IC50 (positive control)): 0.4 µM
6 | CC1=CC(=O)c2ccccc2C1=O [menadione, 2-methyl-1,4-naphthoquinone, reference compound] | – | – | – | – | – | – | – | cytotoxic effect of menadione (LPS5 lymphoblasts [1]; LPS5, 10 μM menadione): unable to cause a cytotoxic effect; viability at 3 h, 50 µM [10]: ~80%; viability at 3 h, 10 µM ([11]; LH5, 10 μM menadione): 80%; viability at 3 h, 50 µM ([11]; LH5, 50 μM menadione): ~40%
7 | N[C@@H](CCC(=O)O)C(=O)O [glutamate, reference compound] | – | – | – | – | – | – | – | viability of CGNs exposed to glutamate ([2]; compared with the control): 80%
8 | C#CCNCc1ccc2nc(N)sc2c1 [Compound 4] | > 10 | 69 | > 10 | 9.3 ± 0.1 | < 50 | < 50 | CNS + (CNS +: high BBB permeation predicted, Pe (×10-6 cm s-1) > 4.0) | –

Continued, in another order:

Row | IC50 (hMAO-A; [12]) [µM] | remaining activity at 40 µM (CK-1δ [3]) [%] | IC50 (hMAO-B; [13]) [µM] | Papp [5, 14] [×10⁻⁶ cm/s] | inhibition at 10 µM (hMAO-A) [%] | inhibition at 10 µM (hMAO-B) [%] | Compound | CNS prediction [5] | also measured
9 | 2.73 ± 0.39 | 83.7 | 9.31 ± 1.57 | 22.7 ± 0.6 | – | – | C#CCN(C)Cc1ccc2nc(N)sc2c1 [Compound 5] | CNS + (CNS +: high BBB permeation predicted, Pe (×10-6 cm s-1) > 4.0) | rescue of cell viability after menadione (LPS5 lymphoblasts [1]): no significant effects; IC50 (hMAO-A; read-out: hMAO-A IC50): 2.7 ± 0.4 µM; reversal of glutamate-mediated excitotoxicity ([2]; compound 1, 10, 25 μM): no significant changes; rescue of cell viability after menadione (LH5 lymphoblasts): a better restorative activity trend than the combination; SI: hMAO-B selectivity index = IC50 (hMAO-A)/IC50 (hMAO-B) (hMAO-B): 0.29; IC50 (hMAO-B; read-out: hMAO-B IC50): 9.3 ± 1.6 µM; Bcl-2 expression ([4]; LPS-insulted N9, 10 μM): a trend of recovery in Bcl-2 expression
10 | – | – | – | 0.62 ± 0.16 | – | – | CO/N=C(\C(=O)N[C@@H]1C(=O)N2C(C(=O)O)=C(COC(N)=O)CS[C@H]12)c1ccco1 [cefuroxime, reference compound] | CNS - (CNS -: low BBB permeation predicted, Pe (×10-6 cm s-1) < 2.0) | –
11 | 6.88 ± 0.46 | 85.2 | > 10 | 10.2 ± 0.25 | – | – | C#CCNc1nc2ccc(N(CC#C)C(C)=O)cc2s1 [Compound 6] | CNS + (CNS +: high BBB permeation predicted, Pe (×10-6 cm s-1) > 4.0) | cytotoxic effects, cell viability (LPS5 lymphoblasts [9]): no toxicity; rescue of cell viability after menadione (LPS5 lymphoblasts [1]): no significant effects; IC50 (hMAO-A; read-out: hMAO-A IC50): 6.9 µM; reversal of glutamate-mediated excitotoxicity ([2]; compound at 1 and 10 μM): restored viability; rescue of cell viability after menadione (LH5 lymphoblasts): a better restorative activity trend than the combination; SI: hMAO-B selectivity index = IC50 (hMAO-A)/IC50 (hMAO-B) (hMAO-B): < 0.69; Bcl-2 expression ([4]; LPS-insulted N9, 10 μM): not evident; Bcl-2 expression ([4]; LPS-insulted N9, 1 or 10 μM): no increase in the level of the Bcl-2 anti-apoptotic marker; Papp [5, 15]: 10.1 ± 0.2 ×10⁻⁶ cm/s; reduction of iNOS level [6]: about 60%
12 | > 10 | – | > 10 | 4.6 ± 0.6 | < 50 | < 50 | C#CCNc1nc2c(s1)CC(N(CC#C)C(C)=O)CC2 (centres unmarked) [Compound 8] | CNS + (CNS +: high BBB permeation predicted, Pe (×10-6 cm s-1) > 4.0) | Papp [5, 15]: 4.6 ± 0.6 ×10⁻⁶ cm/s
13 | > 10 | – | > 10 | 7.7 ± 1 | < 50 | < 50 | C#CCNC1CCc2nc(N)sc2C1 (centres unmarked) [Compound 7] | CNS + (CNS +: high BBB permeation predicted, Pe (×10-6 cm s-1) > 4.0) | Papp [5, 15]: 7.7 ± 1 ×10⁻⁶ cm/s

From publication PMC9354084 (ACS Chemical Neuroscience, 2022)
